Several values for one entry are separate records, joined by “and”; a condition that tells them apart may be missing. Equal entries are not always repeated.
Details: Liquid, Pulse-echo method

c1ccccc1 [benzene]
Details | speed of sound
283.15 K, 101 kPa | 1371.6 m/s
283.15 K, 1112 kPa | 1376.8 m/s
283.15 K, 2281 kPa | 1382.4 m/s
283.15 K, 4616 kPa | 1393.2 m/s
283.15 K, 6766 kPa | 1403.3 m/s
283.15 K, 9100 kPa | 1413.6 m/s
283.15 K, 11628 kPa | 1424.5 m/s
283.15 K, 14278 kPa | 1436 m/s
283.15 K, 15957 kPa | 1443.4 m/s
283.15 K, 18556 kPa | 1454 m/s
283.15 K, 20823 kPa | 1463 m/s
283.15 K, 23405 kPa | 1473.4 m/s
298.15 K, 101 kPa | 1299.9 m/s and 1300.2 m/s
298.15 K, 888 kPa | 1305 m/s
298.15 K, 1246 kPa | 1305.8 m/s
298.15 K, 2254 kPa | 1311.8 m/s
298.15 K, 2506 kPa | 1312.2 m/s
298.15 K, 4580 kPa | 1322.5 m/s
298.15 K, 4719 kPa | 1323.9 m/s
298.15 K, 6991 kPa | 1334.4 m/s
298.15 K, 7131 kPa | 1335.5 m/s
298.15 K, 9327 kPa | 1346.2 m/s
298.15 K, 9335 kPa | 1346.2 m/s
298.15 K, 9408 kPa | 1346 m/s
298.15 K, 11563 kPa | 1355.8 m/s
298.15 K, 11640 kPa | 1357 m/s
298.15 K, 14137 kPa | 1368.5 m/s
298.15 K, 14317 kPa | 1368.6 m/s
298.15 K, 15927 kPa | 1375.9 m/s
298.15 K, 16524 kPa | 1379.1 m/s
298.15 K, 18655 kPa | 1388.6 m/s
298.15 K, 18844 kPa | 1389 m/s
298.15 K, 20826 kPa | 1398.1 m/s
298.15 K, 21001 kPa | 1398.6 m/s
298.15 K, 23151 kPa | 1407.9 m/s
298.15 K, 23834 kPa | 1410.7 m/s
298.15 K, 25699 kPa | 1418.5 m/s
298.15 K, 26172 kPa | 1420.5 m/s
298.15 K, 28369 kPa | 1428.5 m/s
313.15 K, 101 kPa | 1230.8 m/s
313.15 K, 2047 kPa | 1241.3 m/s
313.15 K, 3268 kPa | 1247.8 m/s
313.15 K, 5111 kPa | 1257.8 m/s
313.15 K, 7199 kPa | 1268.7 m/s
313.15 K, 9383 kPa | 1280 m/s
313.15 K, 11613 kPa | 1291.3 m/s
313.15 K, 14139 kPa | 1303.7 m/s
313.15 K, 16386 kPa | 1314.6 m/s
313.15 K, 18686 kPa | 1325.5 m/s
313.15 K, 21242 kPa | 1337.2 m/s
313.15 K, 23254 kPa | 1346.4 m/s
313.15 K, 24384 kPa | 1351.3 m/s
313.15 K, 25607 kPa | 1357.2 m/s
313.15 K, 25608 kPa | 1357.3 m/s
313.15 K, 28210 kPa | 1368.6 m/s
333.15 K, 101 kPa | 1142.4 m/s
333.15 K, 1260 kPa | 1148 m/s
333.15 K, 2426 kPa | 1155 m/s
333.15 K, 5026 kPa | 1170.5 m/s
333.15 K, 7135 kPa | 1182.9 m/s
333.15 K, 9195 kPa | 1194.5 m/s
333.15 K, 11729 kPa | 1208.4 m/s
333.15 K, 14011 kPa | 1220.6 m/s
333.15 K, 16310 kPa | 1232.7 m/s
333.15 K, 18687 kPa | 1244.8 m/s
333.15 K, 20059 kPa | 1251.8 m/s
333.15 K, 21112 kPa | 1257.2 m/s
333.15 K, 23196 kPa | 1267.4 m/s
333.15 K, 25517 kPa | 1278.7 m/s
333.15 K, 28165 kPa | 1287.7 m/s

Source: the NIST ThermoML archive (doi:10.1016/j.jct.2004.04.013)
